Test results as given in publication PMC6680932, “Structure–Antioxidant–Antiproliferative Activity Relationships of Natural C7 and C7–C8 Hydroxylated Flavones and Flavanones” (Antioxidants, 2019).

What was measured:
[1] = Stability of flavonoids in DMSO (control), HPLC; assay type: physicochemical; details: 3 h of incubation
Experimental: Flavonoids were dissolved (as described in Section 2.4) to the concentration of 100 µg/mL. The solutions corresponding to the solutions before the administration to the cell cultures were incubated in 96-well plates for 3 h and transferred to microtubes containing 400 µL of cold methanol (−20 °C) and kept at −20 °C for 1 h. After centrifugation at 12,000× g for 10 min, samples were analyzed by HPLC. Control experiments were also carried out to determine the stability of flavonoids in DMSO under analogous conditions.

[2] = DPPH free radical scavenging activity assay; details: 10 min, 517 nm; mean ± SD
Experimental: (§1) The antioxidant capacity of flavonoids was measured in three separate tests: ABTS, DPPH, and ferric ion reducing antioxidant power (FRAP) assays (ABTS, DPPH, and FRAP reagents from Sigma-Aldrich). All tested compounds were dissolved in DMSO. All determinations were performed in triplicate. Standard curves were prepared for all assays using different concentrations of Trolox (6-hydroxy-2,5,7,8-tetramethylchroman-2-carboxylic acid) (Sigma-Aldrich). Trolox is a water-soluble analogue of vitamin E with high antioxidant activity, commonly used as a control and a reference in studies of antioxidant activity. The results were expressed as the equivalent of μmol Trolox per μmol of the test compound. The absorbance was measured using a UV-2401 PC spectrophotometer (Shimadzu, Kyoto, Japan). Concentrations of the tested samples were in the range from 50 µg/mL to 10 mg/mL.
The DPPH (2,2-diphenyl-1-picrylhydrazyl) radical scavenging activity of samples was determined according to the method described by Yen and Chen with some modifications. Samples (0.1 mL) of known concentration were mixed in polystyrene cuvettes with 2 mL of 0.04 mM DPPH in ethanol and 0.4 mL of ethanol. The absorbance was measured after 10 min at λ = 517 nm. The DPPH reagent was freshly prepared before each experiment.

LoVo (colon cancer) = experiment: Antiproliferative activity in vitro, SRB assay; assay type: cell-based, human; details: Homo sapiens, LoVo, 72 h, 72 h exposure, SRB; read-out: IC50 ± SD LoVo
Experimental: (§2) The antiproliferative studies were performed in vitro using human cancer cell lines—MV-4-11 (biphenotypic B myelomonocytic leukemia), MCF7 (breast carcinoma), LoVo (colon cancer), LoVo/DX (colon cancer doxorubicin-resistant), and DU 145 (prostate cancer)—and normal human cell lines—MCF 10A (breast cells) and HLMEC (lung microvascular endothelial cells). The cell lines MV-4-11, LoVo, DU 145, and MCF 10A were obtained from the American Type Culture Collection (Rockville, Maryland, USA), MCF7 from the European Collection of Authenticated Cell Cultures (ECACC, Salisbury, UK), LoVo/DX courtesy of Professor E. Borowski (Technical University of Gdansk, Poland), and HLMECs (which had been already immortalized by transfection with pSV3-neoplasmid containing large T-antigen gene) were the kind gift of Professor Claudine Kieda (Center for Molecular Biophysics, Orleans, France). The cell lines are being maintained in the Hirszfeld Institute of Immunology and Experimental Therapy, Polish Academy of Sciences (HIIET, PAS), Wroclaw, Poland. All cell lines were grown at 37 °C with 5% CO2 humidified atmosphere. The MV-4-11 cells were cultured in RPMI 1640 medium with GlutaMAX (Gibco, Scotland, UK), supplemented with 1 mM sodium pyruvate and 10% fetal bovine serum (both from Sigma-Aldrich, Poznan, Poland). The MCF7 cells were cultured in Eagle medium (HIIET, PAS, Wroclaw, Poland) supplemented with 2 mM L-glutamine, 10% fetal bovine serum, 1% nonessential amino acid solution, and 0.8 mg/L of insulin (all from Sigma-Aldrich, Poznan, Poland). The LoVo and LoVo/DX cells were cultured in a 1:1 (v/v) mixture of RPMI 1640 and Opti-MEM (both HIIET, PAS, Wroclaw, Poland), supplemented with 1 mM sodium pyruvate, 2 mM L-glutamine, and 5% fetal bovine serum (all from Sigma-Aldrich, Poznan, Poland). For LoVo/DX cells, additionally 10 µg/100 mL of doxorubicin (Accord Healthcare) was added to the medium. DU 145 cells were cultured in Eagle medium (HIIET, PAS, Wroclaw, Poland) supplemented with 1 mM sodium pyruvate, 4 mM L-glutamine, and 10% fetal bovine serum (all from Sigma-Aldrich, Poznan, Poland). The MCF 10A cells were cultured in the F-12 nutrient mixture (Gibco, Scotland, UK), supplemented with 5% horse serum (Gibco, Scotland, UK), 0.05 μg/mL of cholera toxin (Vibrio cholerae), 0.5 μg/mL of hydrocortisone, 10 μg/mL of insulin, and 20 ng/mL of human epidermal growth factor (all from Sigma-Aldrich, Poznan, Poland). The HLMEC cells were cultured in the RPMI 1640 medium (HIIET, PAS, Wroclaw, Poland) with the addition of 2 mM L-glutamine (Sigma-Aldrich, Poznan, Poland) and 10% fetal bovine serum (GE Healthcare). All culture media were supplemented with 100 units/mL penicillin (Polfa Tarchomin S.A., Warsaw, Poland) and 100 µg/mL streptomycin (Sigma-Aldrich, Poznan, Poland). Twenty-four hours before addition of the tested agents, the cells were plated in 96-well plates (Sarstedt, Germany) at a density of 1 × 10^4 (1 × 10^3 for HLMEC and 0.75 × 10^4 for MCF7) cells per well in 100 μL of culture medium.
(§3) Tested compounds were dissolved in DMSO and then diluted in a 1:1 (v/v) mixture of RPMI 1640 (HIIET, PAS, Wroclaw, Poland) and Opti-MEM (Gibco, Scotland, UK) medium supplemented with 2 mM L-glutamine (Sigma-Aldrich, Poznan, Poland), 5% fetal bovine serum (GE Healthcare), 100 units/mL penicillin (Polfa Tarchomin S.A., Warsaw, Poland), and 100 µg/mL streptomycin (Sigma-Aldrich, Poznan, Poland). The antiproliferative effects of the flavonoids were examined after 72 h of exposure of the cultured cells to varying concentrations of the tested agents (from 0.1 to 100 μg/mL) using the MTT (for MV-4-11 cells) or SRB assay described below. Cisplatin (chemotherapy drug used to treat a number of cancers) was used as a positive control. The results are presented as an inhibitory concentration 50 (IC50), which is the concentration of the tested agent that inhibits proliferation of the cell population by 50%. IC50 values for each experiment were calculated separately. […]

[3] = tested on: HLMEC (lung microvascular endothelial cells); experiment: Antiproliferative activity in vitro, SRB assay; assay type: cell-based, human; details: Homo sapiens, Endothelial cell; 72 h exposure, SRB; normal cell line; read-out: IC50 ± SD HLMEC
Experimental: as §2, §3

[4] = ABTS radical cation decolorization assay; details: 6 min incubation, 734 nm; mean ± SD
Experimental: as §1
The radical cation scavenging capacity of the tested compounds was examined against ABTS^+ (2,2’-azino-bis(3-ethylbenzo-thiazoline-6-sulfonic acid) according to the procedure described by Re et al. with some modifications. The test sample (30 μL) of known concentration was mixed in a polystyrene cuvette with 3 mL of ABTS solution with a measured absorption of 0.700 at a wavelength of λ = 734 nm. After 6 min of incubation, the absorption of samples was recorded. The ABTS reagent was freshly prepared before each experiment.

SMILES | compound observed after incubation in DMSO [1] | TEAC DPPH [2] | IC50 (LoVo (colon cancer)) [µM] | IC50 [3] [µM] | TEAC ABTS [4]
O=c1cc(-c2ccc(O)cc2)oc2cc(O)cc(O)c12 [Compound 2, apigenin] | over 99% | 0.005 ± 0.002 µmol trolox per µmol of tested | 13.8 ± 1.38 | 14.1 ± 0.91 | 0.250 ± 0.014 µmol trolox per µmol of tested
O=C1C[C@@H](c2ccc(O)cc2)Oc2cc(O)cc(O)c21 [Compound 6, naringenin] | over 99% | 0.017 ± 0.002 µmol trolox per µmol of tested | 121 ± 4.3 | 114 ± 18.6 | 0.347 ± 0.020 µmol trolox per µmol of tested
O=c1cc(-c2ccc(O)cc2)oc2c(O)c(O)cc(O)c12 [Compound 10, 8-hydroxyapigenin] | over 99% | 5.560 ± 0.121 µmol trolox per µmol of tested | 235 ± 57.1 | 122 ± 14.4 | 10.184 ± 1.768 µmol trolox per µmol of tested
